According to patent US20240254138A1, “TRICYCLIC PYRIMIDINES AS CYCLIN-DEPENDENT KINASE 7 (CDK7) INHIBITORS” (JANSSEN PHARMACEUTICA NV, priority 2021, published 2024):
Like-named read-outs stand apart in the source and are kept apart here.

Assays:
[1] = tested on: RNA Polymerase II Serine 5 phosphorylation (Rpb1 CTD, downstream substrate of CDK7) in A549 cells; assay: Imaging-based cellular RNA PolII Ser5 phosphorylation assay in A549 cells; type: cell-based, human; conditions: for IC50: Homo sapiens; for CDK7_A549 Wild-type CDK7 (pIC50): A549 cells
In short: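 IC50 derived by fitting % control (DMSO high, 10 μM reference low) against concentration, with Hill slope. Readout: high-content imaging of phospho-Ser5 Rpb1 CTD antibody staining in fixed, permeabilized A549 cells exposed to compound 3 h after 20 h culture in 1% FBS DMEM.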

[2] = tested on: RNA Polymerase II Serine 5 phosphorylation in A549 cells overexpressing CDK7-mutant (C312S); assay: Imaging-based cellular RNA PolII Ser5 phosphorylation assay in A549 cells overexpressing CDK7-mutant (C312S); type: cell-based, human; conditions: for IC50: Homo sapiens; for CDK7_A549 mutant hCDK7(pIC50): A549 cells overexpressing CDK7-mutant (C312S)
In short: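 Readout was automated imaging of anti-phospho-Ser5 Rpb1 CTD immunofluorescence, with IC50 fitted to % control versus concentration. Cells were A549 stably overexpressing non-covalently targetable CDK7 C312S alongside wild-type, exposed to compound 3 h at 37 °C. DMSO and 10 μM reference compound served as controls.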

[3] = molecular target: CDK7/cyclinH/MAT1 trimeric complex (Homo sapiens, UniProt P50613); assay: In vitro CDK7 assay, potency of irreversible covalent inhibitors (kinact/KI), coupled PK/LDH ADP readout at 340 nm
[4] = A549, A549 cells, wild-type CDK7, RNA PolII Ser5 phosphorylation, averaged over all measurements, read-out: CDK7_A549 Wild-type CDK7 (pIC50) (converted)
[5] = A549, A549 cells overexpressing CDK7-mutant (C312S), RNA PolII Ser5 phosphorylation, averaged over all measurements, read-out: CDK7_A549 mutant hCDK7(pIC50) (converted)
[6] = CDK7 (20 nM enz.) (KI, μM), 20 nM enzyme
[7] = read-out: CDK7 (20 nM enz.) (kinact, s^−1), 20 nM enzyme
[8] = read-out: CDK7 (20 nM enz.) (kinact/KI, M^−1*s^−1), 20 nM enzyme
[9] = read-out: CDK7 (kinact/KI, M^−1*s^−1), potency of irreversible covalent inhibitors, 1 mM ATP, room temperature, averaged values over all measurements
[10] = CDK7 (KI(μM)), […], 1 mM ATP, room temperature, averaged values over all measurements
[11] = read-out: CDK7 (kinact, s^−1), kinact = maximal rate of inactivation, 1 mM ATP, room temperature, averaged values over all measurements
[12] = wild-type CDK7, RNA PolII Ser5 phosphorylation, averaged over all measurements
[13] = RNA PolII Ser5 phosphorylation, averaged over all measurements

Chain of CDK7/cyclinH/MAT1 trimeric complex (P50613 whole entry): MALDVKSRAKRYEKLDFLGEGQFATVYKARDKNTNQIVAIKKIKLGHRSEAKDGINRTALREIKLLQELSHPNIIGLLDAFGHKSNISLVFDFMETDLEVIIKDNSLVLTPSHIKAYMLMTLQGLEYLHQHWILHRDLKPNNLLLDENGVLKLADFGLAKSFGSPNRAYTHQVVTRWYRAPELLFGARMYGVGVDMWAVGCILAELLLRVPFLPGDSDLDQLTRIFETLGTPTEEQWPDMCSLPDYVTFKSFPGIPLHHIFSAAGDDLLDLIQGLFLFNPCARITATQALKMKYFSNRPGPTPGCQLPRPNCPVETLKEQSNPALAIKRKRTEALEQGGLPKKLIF
Chain of CDK7/cyclinH/MAT1 trimeric complex (P51946 whole entry partner): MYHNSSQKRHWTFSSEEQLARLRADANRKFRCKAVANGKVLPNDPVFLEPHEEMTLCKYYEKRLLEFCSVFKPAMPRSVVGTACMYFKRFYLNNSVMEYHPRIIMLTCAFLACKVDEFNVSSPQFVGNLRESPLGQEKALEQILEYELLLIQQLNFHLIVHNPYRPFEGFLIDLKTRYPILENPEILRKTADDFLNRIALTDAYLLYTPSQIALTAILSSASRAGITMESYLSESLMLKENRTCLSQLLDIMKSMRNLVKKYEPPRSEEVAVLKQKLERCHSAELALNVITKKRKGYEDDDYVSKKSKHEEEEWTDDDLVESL
Chain of CDK7/cyclinH/MAT1 trimeric complex (P51948 whole entry partner): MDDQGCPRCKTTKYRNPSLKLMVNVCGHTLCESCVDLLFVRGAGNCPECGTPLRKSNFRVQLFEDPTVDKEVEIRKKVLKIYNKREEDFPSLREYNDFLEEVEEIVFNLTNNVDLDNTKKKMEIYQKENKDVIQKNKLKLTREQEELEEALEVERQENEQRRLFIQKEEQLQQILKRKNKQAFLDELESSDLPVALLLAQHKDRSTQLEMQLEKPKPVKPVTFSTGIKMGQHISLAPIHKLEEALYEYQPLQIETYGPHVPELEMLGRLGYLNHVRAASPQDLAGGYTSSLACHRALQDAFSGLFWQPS

| SMILES | IC50 [1, 4] | IC50 [2, 5] | kinact/KI [3, 9] | Ki [3, 10] | kinact [3, 11] | further results |
| --- | --- | --- | --- | --- | --- | --- |
| C=CC(=C)N1CC(N2CCC(c3cc4c(cc3C)OCc3c(N5CCOCC5)ccnc3N4)CC2)C1 [Compound 19] | – | – | – | – | – | IC50 ([1]; A549, read-out: CDK7_A549 Wild-type CDK7 (pIC50) (converted)): 166 nM; IC50 ([2]; A549, read-out: CDK7_A549 mutant hCDK7(pIC50) (converted)): > 10000 nM; kinact/KI ([3]; read-out: CDK7 (kinact/KI, M^−1*s^−1)): 304 M⁻¹ s⁻¹ |
| C=CC(=O)N1CC(N2CCC(c3ccc4c(c3)Nc3nccc(N5CCOCC5)c3C(C)O4)CC2)C1 (stereo not drawn) [Compound 22] | 56.2 nM | > 10000 nM | 52.4 M⁻¹ s⁻¹ | – | – | Ki [3, 6]: 0.0524 µM; kinact [3, 7]: 7.22e-05 s⁻¹; kinact/KI [3, 8]: 1870 M⁻¹ s⁻¹ |
| C=CC(=O)N1CC(N2CCC(c3cc4c(cc3Cl)OCc3c(N5CCOCC5)ccnc3N4)CC2)C1 [Compound 23] | 120 nM | > 10000 nM | 455 M⁻¹ s⁻¹ | – | – | – |
| C=CC(=O)Nc1cc(-c2ccc3c(c2)Nc2nccc(N4CCOCC4)c2CO3)ccn1 [Compound 24] | 52.5 nM | 6920 nM | 21.5 M⁻¹ s⁻¹ | – | – | kinact/KI [3, 8]: 1250 M⁻¹ s⁻¹ |
| C=CC(=O)N1CCC(c2ccc(-c3ccc4c(c3)Nc3nccc(N5CCOCC5)c3CO4)cn2)C1 (stereo not drawn) [Compound 25] | 891 nM | > 10000 nM | 254 M⁻¹ s⁻¹ | 0.0648 µM | 2.33e-05 s⁻¹ | – |
| C=CC(=O)Nc1ccc(-c2ccc3c(c2)Nc2nccc(N4CCOCC4)c2CO3)cn1 [Compound 26] | – | – | 1620 M⁻¹ s⁻¹ | 0.063 µM | 0.000102 s⁻¹ | CDK7_A549 Wild-type CDK7 (pIC50) [1, 12]: 7.65; CDK7_A549 mutant hCDK7(pIC50) [2, 13]: ~5.1; CDK7 (20 nM enz.) (kobs/[I], M^−1*s^−1) ([3]; 20 nM enzyme): 1343.33 M⁻¹ s⁻¹ |
| C=CC(=O)N1CC(N2CCC(c3cc4c(cc3F)OCc3c(N5CCOCC5)ccnc3N4)CC2)C1 [Compound 28] | 257 nM | > 10000 nM | 477 M⁻¹ s⁻¹ | – | – | – |
| C=CC(=O)N1CC(N2CCC(c3cc(Cl)c4c(c3)Nc3nccc(N5CCOCC5)c3CO4)CC2)C1 [Compound 29] | 38.9 nM | ~7760 nM | – | – | – | kinact/KI [3, 8]: 1030 M⁻¹ s⁻¹ |
| C=CC(=O)N1CCC(C#Cc2ccc3c(c2)Nc2nccc(C4CCOCC4)c2CO3)CC1 [Compound 30] | ~7590 nM | > 10000 nM | 208 M⁻¹ s⁻¹ | 0.316 µM | 6.56e-05 s⁻¹ | – |
| C=CC(=O)N1CC(N2CCC(c3ccc4c(c3)Nc3nccc(-c5cnc6[nH]ccc6c5)c3CO4)CC2)C1 [Compound 31] | 437 nM | > 10000 nM | 638 M⁻¹ s⁻¹ | 0.175 µM | 0.000112 s⁻¹ | – |
| C=CC(=O)N1CC(C#Cc2ccc3c(c2)Nc2nccc(C4CCOCC4)c2CO3)C1 [Compound 33] | 603 nM | > 10000 nM | 1050 M⁻¹ s⁻¹ | 0.15 µM | 0.000158 s⁻¹ | – |
| C=CC(=O)N1CCC(N2CC(c3ccc4c(c3)Nc3nccc(C5CCOCC5)c3CO4)C2)CC1 [Compound 36] | – | – | – | – | – | CDK7_A549 Wild-type CDK7 (pIC50) [1, 12]: 6.89; CDK7_A549 mutant hCDK7(pIC50) [2, 13]: 5.04; CDK7 (20 nM enz.) (kinact/KI, M^−1*s^−1) ([3]; 20 nM enzyme): 535 M⁻¹ s⁻¹; Ki [3, 6]: 0.092 µM; kinact [3, 7]: 4.92e-05 s⁻¹ |
| C=CC(=O)N1CC(N2CCC(c3ccc4c(c3)Nc3ncc(C)c(N5CCOCC5)c3CO4)CC2)C1 [Compound 37] | 851 nM | > 10000 nM | 849 M⁻¹ s⁻¹ | 0.129 µM | 0.00011 s⁻¹ | – |
| C=CC(=O)N1CC(N2CCC(c3ccc4c(c3)Nc3nccc(-c5cnn(C)c5)c3CO4)CC2)C1 [Compound 39] | 141 nM | > 10000 nM | 803 M⁻¹ s⁻¹ | – | – | – |
| C=CC(=O)N1CC(N2CCCC(c3ccc4c(c3)Nc3nccc(N5CCOCC5)c3CO4)C2)C1 (stereo not drawn) [Compound 40] | 1120 nM | > 10000 nM | 306 M⁻¹ s⁻¹ | 0.209 µM | 6.41e-05 s⁻¹ | – |
| C=CC(=O)N1CC(N2CCCC(c3ccc4c(c3)Nc3nccc(N5CCOCC5)c3CO4)CC2)C1 (stereo not drawn) [Compound 42] | 123 nM | > 10000 nM | 761 M⁻¹ s⁻¹ | 0.0811 µM | 6.17e-05 s⁻¹ | – |
| C=CC(=O)N1CC(c2ccc(-c3ccc4c(c3)Nc3nccc(N5CCOCC5)c3CO4)cn2)C1 [Compound 43] | 339 nM | > 10000 nM | 1100 M⁻¹ s⁻¹ | 0.0497 µM | 5.46e-05 s⁻¹ | – |
| C=CC(=O)N1CC(N2CCC(c3ccc4c(c3)Nc3ncc(C#N)c(N5CCOCC5)c3CO4)CC2)C1 [Compound 45] | 1150 nM | > 10000 nM | 1110 M⁻¹ s⁻¹ | 0.123 µM | 0.000137 s⁻¹ | – |
| C=CC(=O)N1CC(N2CCC(c3ccc4c(c3)Nc3nccc(N5CCC6(CCO6)CC5)c3CO4)CC2)C1 [Compound 46] | 631 nM | > 10000 nM | 456 M⁻¹ s⁻¹ | 0.223 µM | 0.000102 s⁻¹ | – |
| C=CC(=O)N1CC(N2CCC(c3ccc4c(c3)Nc3nccc(N5CCOC6(CCOCC6)C5)c3CO4)CC2)C1 [Compound 47] | 871 nM | > 10000 nM | 605 M⁻¹ s⁻¹ | 0.207 µM | 0.000125 s⁻¹ | – |
| C=CC(=O)N1CC(N2[C@@H]3CC[C@H]2C[C@@H](c2ccc4c(c2)Nc2nccc(N5CCOCC5)c2CO4)C3)C1 [Compound 49] | 53.7 nM | ~10000 nM | 990 M⁻¹ s⁻¹ | – | – | kinact/KI ([3]; read-out: CDK7 (20 nM enz.) (kobs/[I], M^−1*s^−1), 20 nM enzyme): 1150 M⁻¹ s⁻¹ |
| CC#CC(=O)N1CC(N2CCC(c3ccc4c(c3)Nc3nccc(N5CCOCC5)c3CO4)CC2)C1 [Compound 50] | ~178 nM | > 10000 nM | 1090 M⁻¹ s⁻¹ | 0.132 µM | 0.000144 s⁻¹ | – |
| C=CC(=O)N1CC(c2nc(C)c(-c3ccc4c(c3)Nc3nccc(N5CCOCC5)c3CO4)c(C)n2)C1 [Compound 51] | 417 nM | > 10000 nM | 1110 M⁻¹ s⁻¹ | 0.0706 µM | 7.84e-05 s⁻¹ | – |
| C=CC(=O)N1CC(N2CCC(c3ccc4c(c3)OCc3c(-c5cnn(C)c5)ccnc3N4)CC2)C1 [Compound 52] | 282 nM | 2820 nM | 998 M⁻¹ s⁻¹ | 0.166 µM | 0.000166 s⁻¹ | – |
| C=CC(=O)N1CC(N2CCC(c3ccc4c(c3)Nc3nccc(N5CCCOCC5)c3CO4)CC2)C1 [Compound 53] | 186 nM | > 10000 nM | 773 M⁻¹ s⁻¹ | – | – | – |
| C=CC(=O)N1CC(N2[C@@H]3CC[C@H]2C[C@H](c2ccc4c(c2)Nc2nccc(N5CCOCC5)c2CO4)C3)C1 [Compound 54] | 145 nM | 8130 nM | 997 M⁻¹ s⁻¹ | 0.1 µM | 0.0001 s⁻¹ | – |
| C=CC(=O)N1CCC(c2ccc3c(c2)OCc2c(N4CCOCC4)ccnc2N3)C1 (stereo not drawn) [Compound 55] | > 10000 nM | > 10000 nM | 2.45 M⁻¹ s⁻¹ | – | – | – |
| C=CC(=O)N1CC(c2ncc(-c3ccc4c(c3)Nc3nccc(N5CCOCC5)c3CO4)cn2)C1 [Compound 56] | 182 nM | > 10000 nM | 1040 M⁻¹ s⁻¹ | 0.0673 µM | 6.99e-05 s⁻¹ | – |
